In patent US11932600B2, “Biaryl derivative” (DAIICHI SANKYO COMPANY, LIMITED, priority 2018, dated 2024):

How the values were obtained:
human TNAP = target: T1, human TNAP (Homo sapiens, UniProt P05186); test: Inhibitory test of TNAP activity (pNPP substrate, p-nitrophenol production); type: biochemical; details: human TNAP from culture supernatant of transfected COS1 cells, 60 minutes at room temperature, ABS 405 nm
T1 construct: host or cells: COS1 cells, concentrated and dialyzed culture supernatant
T1 sequence (P05186 18-502 limits assumed): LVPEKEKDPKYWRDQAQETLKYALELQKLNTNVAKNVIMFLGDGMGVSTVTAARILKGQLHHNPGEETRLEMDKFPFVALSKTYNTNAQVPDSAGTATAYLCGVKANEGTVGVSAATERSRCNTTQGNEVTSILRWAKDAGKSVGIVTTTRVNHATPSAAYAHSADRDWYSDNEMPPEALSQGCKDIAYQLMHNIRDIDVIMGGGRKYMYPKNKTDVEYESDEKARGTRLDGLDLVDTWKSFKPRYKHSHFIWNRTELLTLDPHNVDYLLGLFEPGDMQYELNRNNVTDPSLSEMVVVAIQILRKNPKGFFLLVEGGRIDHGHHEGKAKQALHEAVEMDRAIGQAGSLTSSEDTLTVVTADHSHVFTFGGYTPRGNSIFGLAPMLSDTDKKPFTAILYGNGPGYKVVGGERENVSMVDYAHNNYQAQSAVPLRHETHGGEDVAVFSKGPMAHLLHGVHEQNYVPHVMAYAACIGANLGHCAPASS
Protocol: <Test Examples> (Test Example 1) Inhibitory Test of TNAP Activity
COS1 cells (DS Pharma Biomedical Co., Ltd.) were transfected with human TNAP (OriGene Technologies, Inc.) using Lipofectamine LTX & Plus reagent (Invitrogen Corp.). On the next day, the medium was replaced with a fresh medium, and the cells were cultured in an incubator for 3 days. After 3 days, the culture supernatant was collected and concentrated by centrifugation at 5000 G for 30 minutes using Amicon 14, 10^4 cut (Merck Millipore). The concentrated culture supernatant was dialyzed against 5 L of 50 mM Tris/200 mM NaCl/1 mM MgCl2/20 μM ZnCl2 twice and used as an enzyme source (enzyme solution). The substrate pNPP (ProteoChem Inc.) was adjusted to 3.1 mM with Milli-Q water, and a solution of each test compound dissolved in dimethyl sulfoxide (DMSO; Wako Pure Chemical Industries, Ltd.) by 6 serial dilutions at a 5-fold common ratio from 100 μM or DMSO was added thereto at a final concentration of 1% by volume. The enzyme solution adjusted to 2 μg/mL with an assay buffer (200 mM Tris/2 mM MgCl2/0.04 mM ZnCl2/0.01% Tween 20) was added in the same amount of the substrate solution and incubated at room temperature for 60 minutes. Then, the absorbance (ABS: 405 nm) was measured using a microplate reader (model plus 384, Molecular Devices, LLC), and the concentration of produced p-nitrophenol was calculated.

[1] = system: plasma ALP (80-90% containing TNAP); test: Inhibitory test of plasma TNAP activity in B6 mouse; type: in vivo; details: 0.3 mg/kg orally in 0.5% methylcellulose, average inhibition from 0 hour to 6 hours after administration, activity before administration = 100%
Protocol: (Test Example 3) Inhibitory Test of Plasma TNAP Activity in B6 Mouse (Charles River Laboratories Japan, Inc.)
After blood sampling from the tail vein using a heparin-treated hematocrit capillary tube (EM Meister Hematocrit Capillary Tube, AS ONE Corp.) (as the sample before compound administration), each test compound suspended in a 0.5% methylcellulose solution (powder purchased from Wako Pure Chemical Industries, Ltd. was adjusted to 0.5% with Otsuka distilled water) was administered orally to the mouse (0.3 mg/kg). 1, 2, 4, 6, and 24 hours after the administration, blood was collected from the tail vein using a heparin-treated hematocrit capillary tube to obtain a plasma sample. The plasma sample was added to an assay buffer (1 M Tris, 1 M MgCl2, 20 mM ZnCl2, and water, pH 7.5), and the mixture was left standing for 5 minutes. Then, the absorbance at 405 nm was measured and used as a blank. The substrate pNPP was added to the plasma sample and incubated at room temperature for 180 minutes. Then, the absorbance (ABS: 405 nm) was measured using a microplate reader (model plus 384, Molecular Devices, LLC), and the concentration of produced p-nitrophenol was calculated. The blank was subtracted from all measurement values to calculate TNAP activity at each time point with the TNAP activity of the sample before compound administration defined as 100%.
It was calculated according to the following expression: 100−((plasma ALP activity at 0 hr+plasma ALP activity at 1 hr)*1/2+(plasma ALP activity at 1 hr+plasma ALP activity at 2 hr)*1/2+(plasma ALP activity at 2 hr+plasma ALP activity at 4 hr)*2/2+(plasma ALP activity at 4 hr+plasma ALP activity at 6 hr)*2/2)/6.

SMILES | IC50 (human TNAP) [nM] | Plasma ALP Inhibition (6 h ave. inhibition %) [1] [%]
CCc1cncc(S(=O)(=O)Nc2c(F)cc(Cl)cc2-c2ccc(OC(C)(C)C(=O)O)cc2)c1 [Example 7, 2-({5′-Chloro-2′-[(5-ethylpyridine-3-sulfonyl)amino]-3′-fluoro[1,1′-biphenyl]-4-yl}oxy)-2-methylpropanoic acid] | 0.15 | 69.0
Cc1cncc(S(=O)(=O)Nc2c(F)cc(Cl)cc2-c2ccc(OC(C)(C)C(=O)O)cc2)c1 [Example 3, 2-({5′-Chloro-3′-fluoro-2′-[(5-methylpyridine-3-sulfonyl)amino][1,1′-biphenyl]-4-yl}oxy)-2-methylpropanoic acid] | 0.24 | 70.5
Cc1cncc(S(=O)(=O)Nc2c(F)cc(Cl)cc2-c2ccc(CCC(=O)O)cc2)c1C [Example 31, 3-{5′-Chloro-2′-[(4,5-dimethylpyridine-3-sulfonyl)amino]-3′-fluoro[1,1′-biphenyl]-4-yl}propanoic acid] | 0.18 | 82.2
Cc1cncc(S(=O)(=O)Nc2c(F)cc(Cl)cc2-c2ccc(OC(C)(C)C(=O)O)cc2)c1C [Example 8, 2-({5′-Chloro-2′-[(4,5-dimethylpyridine-3-sulfonyl)amino]-3′-fluoro[1,1′-biphenyl]-4-yl}oxy)-2-methylpropanoic acid] | 0.15 | 76.2
Cc1cncc(S(=O)(=O)Nc2c(F)cc(Cl)cc2-c2ccc(CC(=O)O)cc2)c1 [Example 11, {5′-Chloro-3′-fluoro-2′-[(5-methylpyridine-3-sulfonyl)amino][1,1′-biphenyl]-4-yl}acetic acid] | 0.14 | 79.0
